Data on 12 compounds can be found in US11851426B2, “Bicyclic amines as CDK2 inhibitors” (Incyte Corporation, priority 2019, dated 2023).

Bounds are passed on as bounds.

For the test, the target named is CDK2/Cyclin E1 (Homo sapiens (Human), UniProt P24941). As to the kind of experiment: CDK2/Cyclin E1 HTRF enzyme activity assay. The test is classed as biochemical. The settings on record: 1 mM ATP; CDK2/Cyclin E1 0.25 nM; 60 minutes at room temperature. How it is done:
Example A. CDK2/Cyclin E1 HTRF Enzyme Activity Assay
CDK2/Cyclin E1 enzyme activity assays utilize full-length human CDK2 co-expressed as N-terminal GST-tagged protein with FLAG-Cyclin E1 in a baculovirus expression system (Carna Product Number 04-165). Assays were conducted in white 384-well polystyrene plates in a final reaction volume of 8 μL. CDK2/Cyclin E1 (0.25 nM) was incubated with the compounds of the Examples (40 nL serially diluted in DMSO) in the presence of ATP (50 μM or 1 mM) and 50 nM ULight™-labeled eIF4E-binding protein 1 (THR37/46) peptide (PerkinElmer) in assay buffer (containing 50 mM HEPES pH 7.5, 1 mM EGTA, 10 mM MgCl2, 2 mM DTT, 0.05 mg/mL BSA, and 0.01% Tween 20) for 60 minutes at room temperature. The reactions were stopped by the addition of EDTA and Europium-labeled anti-phospho-4E-BP1 antibody (PerkinElmer), for a final concentration of 15 mM and 1.5 nM, respectively. HTRF signals were read after 1 hour at room temperature on a PHERAstar FS plate reader (BMG Labtech). Data was analyzed with IDBS XLFit and GraphPad Prism 5.0 software using a three or four parameter dose response curve to determine IC50 for each compound.
In turn, `CS(=O)(=O)N1CCC(Nc2nc3c(N4CCC(F)CC4)c(-c4cn[nH]c4)ccn3n2)CC1` [Example 23, 8-(4-fluoropiperidin-1-yl)-N-(1-(methylsulfonyl)piperidin-4-yl)-7-(1H-pyrazol-4-yl)-[1,2,4]triazolo[1,5-a]pyridin-2-amine] gave an IC50 of no more than 0.02 µM. Regarding `CS(=O)(=O)N1CCC(Nc2nc3c(Nc4ccccc4)c(-c4cn[nH]c4)ccn3n2)CC1` [Example 24, N^2-(1-(methylsulfonyl)piperidin-4-yl)-N^8-phenyl-7-(1H-pyrazol-4-yl)-[1,2,4]triazolo[1,5-a]pyridine-2,8-diamine], the IC50 is no more than 0.02 µM. Consider `CS(=O)(=O)N1CCC(Nc2nc3c(-c4ccc(F)cc4)c(-c4cn[nH]c4)ccn3n2)CC1` [Example 25, 8-(4-fluorophenyl)-N-(1-(methylsulfonyl)piperidin-4-yl)-7-(1H-pyrazol-4-yl)-[1,2,4]triazolo[1,5-a]pyridin-2-amine], for which the IC50 was no more than 0.02 µM.

Turning to `CS(=O)(=O)N1CCC(Nc2nc3c(-c4cccc(C(F)(F)F)c4)c(-c4cn[nH]c4)ccn3n2)CC1` [Example 26, N-(1-(methylsulfonyl)piperidin-4-yl)-7-(1H-pyrazol-4-yl)-8-(3-(trifluoromethyl)phenyl)-[1,2,4]triazolo[1,5-a]pyridin-2-amine], the IC50 is no more than 0.02 µM.

`CCOc1c(-c2cn[nH]c2)ccn2nc(N[C@H]3CCN(S(=O)(=O)CCCN4CCCCC4)C[C@H]3C)nc12` [Example 27, 8-ethoxy-N-((3R,4S)-3-methyl-1-((3-(piperidin-1-yl)propyl)sulfonyl)piperidin-4-yl)-7-(1H-pyrazol-4-yl)-[1,2,4]triazolo[1,5-a]pyridin-2-amine] had an IC50 of no more than 0.02 µM.

Regarding `CCOc1c(-c2cn[nH]c2)ccn2nc(N[C@H]3CCN(S(=O)(=O)CCCN(C)C)C[C@H]3C)nc12` [Example 28, N-((3R,4S)-1-((3-(dimethylamino)propyl)sulfonyl)-3-methylpiperidin-4-yl)-8-ethoxy-7-(1H-pyrazol-4-yl)-[1,2,4]triazolo[1,5-a]pyridin-2-amine], the IC50 was no more than 0.02 µM. With `CCOc1c(-c2cn[nH]c2)ccn2nc(N[C@H]3CCN(S(=O)(=O)CCCN4CCCC4)C[C@H]3C)nc12` [Example 29, 8-ethoxy-N-((3R,4S)-3-methyl-1-((3-(pyrrolidin-1-yl)propyl)sulfonyl)piperidin-4-yl)-7-(1H-pyrazol-4-yl)-[1,2,4]triazolo[1,5-a]pyridin-2-amine], the IC50 is no more than 0.02 µM. For `CS(=O)(=O)N1CCC(Nc2nc3c(N4CCC(C(F)(F)F)CC4)c(-c4cn[nH]c4)ccn3n2)CC1` [Example 30, N-(1-(methylsulfonyl)piperidin-4-yl)-7-(1H-pyrazol-4-yl)-8-(4-(trifluoromethyl)piperidin-1-yl)-[1,2,4]triazolo[1,5-a]pyridin-2-amine], the IC50 is no more than 0.02 µM.

The compound `CS(=O)(=O)N1CCC(Nc2nc3c(N4CCCC(F)C4)c(-c4cn[nH]c4)ccn3n2)CC1` (stereo not drawn) [Example 31, 8-(3-fluoropiperidin-1-yl)-N-(1-(methylsulfonyl)piperidin-4-yl)-7-(1H-pyrazol-4-yl)-[1,2,4]triazolo[1,5-a]pyridin-2-amine] yielded an IC50 of no more than 0.02 µM.

`CCOc1c(-c2cn[nH]c2)ncn2nc(NC3CCN(S(C)(=O)=O)CC3)nc12` [Example 32, 8-Ethoxy-N-(1-(methylsulfonyl)piperidin-4-yl)-7-(1H-pyrazol-4-yl)-[1,2,4]triazolo[1,5-c]pyrimidin-2-amine]: the IC50 is no more than 0.02 µM.

Consider `CC(C)Oc1c(-c2cn[nH]c2)ncn2nc(N[C@H]3CCN(S(C)(=O)=O)C[C@H]3C)nc12` [Example 33, 8-isopropoxy-N-((3R,4S)-3-methyl-1-(methylsulfonyl)piperidin-4-yl)-7-(1H-pyrazol-4-yl)-[1,2,4]triazolo[1,5-c]pyrimidin-2-amine], for which the IC50 is no more than 0.02 µM. Take `CC1CCN(c2c(-c3cn[nH]c3)ncn3nc(NC4CCN(S(C)(=O)=O)CC4)nc23)CC1` [Example 34, 8-(4-methylpiperidin-1-yl)-N-(1-(methylsulfonyl)piperidin-4-yl)-7-(1H-pyrazol-4-yl)-[1,2,4]triazolo[1,5-c]pyrimidin-2-amine]: the IC50 was no more than 0.02 µM.

The term IC50 denotes the concentration that inhibits the measured activity by half.
